Results published in ChEMBL document CHEMBL1201862, “PubChem BioAssay data set” (2004).
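Dose response: 5 concentrations. Exposure: 48 h. Format: 96-well plates. Endpoint: linear interpolation; highest concentration if not reached. GI50 is the concentration that inhibits growth by half.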 Activity calls are given as the source filed them. Cut-off read from the data, not from the text of the source: active = GI50 up to about 1.1 µM and inactive = higher.

Tests used:
Test in all cases: inhibition of tumour cell growth, NCI panel, 48 h
A549 = test system: A549
SK-MEL-28 = test system: SK-MEL-28
MOLT-4 = test system: MOLT-4
M14 = test system: M14
OVCAR-4 = test system: OVCAR-4
TK-10 = test system: TK-10
NCI-H522 = test system: NCI-H522
CCRF-CEM = test system: CCRF-CEM
U-251 = test system: U-251
HL-60 = test system: HL-60
786-0 = test system: 786-0
SF-295 = test system: SF-295
HOP-92 = test system: HOP-92
UACC-62 = test system: UACC-62
OVCAR-8 = test system: OVCAR-8
A498 = test system: A498
NCI-H226 = test system: NCI-H226
OVCAR-5 = test system: OVCAR-5

With CC(=O)N(CCN)CCN the GI50 (A549) was > 10 µM (inactive), the GI50 (SK-MEL-28) was > 10 µM (inactive) and the GI50 (MOLT-4) was > 10 µM (inactive). For the same compound, the GI50 (M14) was > 10 µM (inactive), the GI50 (OVCAR-4) was > 10 µM (inactive) and the GI50 (TK-10) was > 10 µM (inactive). For the same compound, the GI50 (NCI-H522) was > 10 µM (inactive), the GI50 (CCRF-CEM) was > 10 µM (inactive) and the GI50 (U-251) was > 10 µM (inactive). For the same compound, the GI50 (HL-60) was > 10 µM (inactive), the GI50 (786-0) was > 10 µM (inactive) and the GI50 (SF-295) was > 10 µM (inactive). For the same compound, the GI50 (HOP-92) was > 10 µM (inactive), the GI50 (UACC-62) was > 100 µM (inactive) and the GI50 (OVCAR-8) was > 10 µM (inactive). The GI50 (A498) was > 10 µM (inactive).

COc1ccc(C2C(Cl)C(=O)N2NC(=O)Cc2ccccc2)cc1OC (stereo not given) was tested, and the GI50 (A549) was > 100 µM (inactive), the GI50 (SK-MEL-28) was > 100 µM (inactive) and the GI50 (MOLT-4) was > 100 µM (inactive). For the same compound, the GI50 (M14) was > 100 µM (inactive), the GI50 (OVCAR-4) was > 100 µM (inactive) and the GI50 (TK-10) was > 100 µM (inactive). For the same compound, the GI50 (NCI-H522) was > 100 µM (inactive), the GI50 (CCRF-CEM) was > 100 µM (inactive) and the GI50 (U-251) was > 100 µM (inactive). The GI50 (HL-60) was > 100 µM (inactive), the GI50 (NCI-H226) was > 100 µM (inactive) and the GI50 (786-0) was > 100 µM (inactive). For the same compound, the GI50 (SF-295) was > 100 µM (inactive), the GI50 (UACC-62) was > 100 µM (inactive) and the GI50 (OVCAR-8) was > 100 µM (inactive). For the same compound, the GI50 (OVCAR-5) was > 100 µM (inactive).

COC(=O)C1=CC(=O)[C@@H]2CCCC[C@H]12 was tested, and the GI50 (A549) was > 100 µM (inactive), the GI50 (SK-MEL-28) was > 100 µM (inactive) and the GI50 (MOLT-4) was > 100 µM (inactive). The GI50 (M14) was > 100 µM (inactive), the GI50 (OVCAR-4) was > 100 µM (inactive) and the GI50 (TK-10) was > 100 µM (inactive). The GI50 (NCI-H522) was > 100 µM (inactive), the GI50 (CCRF-CEM) was > 100 µM (inactive) and the GI50 (U-251) was > 100 µM (inactive). For the same compound, the GI50 (HL-60) was > 100 µM (inactive), the GI50 (NCI-H226) was > 100 µM (inactive) and the GI50 (786-0) was > 100 µM (inactive). For the same compound, the GI50 (UACC-62) was > 100 µM (inactive) and the GI50 (OVCAR-8) was > 100 µM (inactive).

For Cc1ccccc1C(=O)c1ccccc1O, the GI50 (A549) was > 100 µM (inactive), the GI50 (SK-MEL-28) was > 100 µM (inactive) and the GI50 (MOLT-4) was > 100 µM (inactive). For the same compound, the GI50 (M14) was > 100 µM (inactive), the GI50 (OVCAR-4) was > 100 µM (inactive) and the GI50 (TK-10) was > 100 µM (inactive). The GI50 (CCRF-CEM) was > 100 µM (inactive), the GI50 (U-251) was > 100 µM (inactive) and the GI50 (HL-60) was > 100 µM (inactive). For the same compound, the GI50 (NCI-H226) was > 100 µM (inactive), the GI50 (786-0) was > 100 µM (inactive) and the GI50 (SF-295) was > 100 µM (inactive). For the same compound, the GI50 (HOP-92) was > 100 µM (inactive), the GI50 (UACC-62) was > 100 µM (inactive) and the GI50 (OVCAR-8) was > 100 µM (inactive). For the same compound, the GI50 (OVCAR-5) was > 100 µM (inactive) and the GI50 (A498) was > 100 µM (inactive).

With CCC(C)n1c(C)nc2c1C(=O)c1ccccc1C2=O (stereo not given) the GI50 (A549) was 33.9 µM (inactive), the GI50 (SK-MEL-28) was 75.7 µM (inactive) and the GI50 (MOLT-4) was 28.1 µM (inactive). For the same compound, the GI50 (M14) was > 100 µM (inactive), the GI50 (OVCAR-4) was 73.1 µM (inactive) and the GI50 (TK-10) was 94.6 µM (inactive). The GI50 (NCI-H522) was 51.3 µM (inactive), the GI50 (CCRF-CEM) was 37.2 µM (inactive) and the GI50 (U-251) was 44.8 µM (inactive). For the same compound, the GI50 (HL-60) was 14.5 µM (inactive), the GI50 (NCI-H226) was 61.9 µM (inactive) and the GI50 (786-0) was 61.2 µM (inactive). For the same compound, the GI50 (SF-295) was 49.8 µM (inactive), the GI50 (HOP-92) was 22.1 µM (inactive) and the GI50 (UACC-62) was 28.2 µM (inactive). For the same compound, the GI50 (OVCAR-8) was 47.1 µM (inactive).

With CC1=C(Cl)C=CP(=O)(OC(C)C)C1 (stereo not given) the GI50 (A549) was > 100 µM (inactive), the GI50 (SK-MEL-28) was > 100 µM (inactive) and the GI50 (MOLT-4) was 40.7 µM (inactive). The GI50 (M14) was 61.7 µM (inactive), the GI50 (OVCAR-4) was > 100 µM (inactive) and the GI50 (TK-10) was > 100 µM (inactive). For the same compound, the GI50 (NCI-H522) was 27.8 µM (inactive), the GI50 (CCRF-CEM) was 37.5 µM (inactive) and the GI50 (U-251) was > 100 µM (inactive). The GI50 (HL-60) was 52 µM (inactive), the GI50 (786-0) was > 100 µM (inactive) and the GI50 (SF-295) was > 100 µM (inactive). For the same compound, the GI50 (HOP-92) was > 100 µM (inactive), the GI50 (UACC-62) was > 100 µM (inactive) and the GI50 (OVCAR-8) was 36.9 µM (inactive). For the same compound, the GI50 (OVCAR-5) was > 100 µM (inactive) and the GI50 (A498) was > 100 µM (inactive).

For CCOc1cc(/C=C/C=C/c2ccc(N(C)C)cc2)[s+]c2ccccc12, the GI50 (A549) was 11.4 µM (inactive), the GI50 (SK-MEL-28) was 27.2 µM (inactive) and the GI50 (MOLT-4) was 6.85 µM (inactive). The GI50 (M14) was 38.7 µM (inactive), the GI50 (OVCAR-4) was 16 µM (inactive) and the GI50 (TK-10) was 33.2 µM (inactive). The GI50 (CCRF-CEM) was 3.38 µM (inactive), the GI50 (U-251) was 5.36 µM (inactive) and the GI50 (HL-60) was 0.857 µM (active). For the same compound, the GI50 (786-0) was 19 µM (inactive), the GI50 (SF-295) was 33.8 µM (inactive) and the GI50 (HOP-92) was 23.5 µM (inactive). For the same compound, the GI50 (UACC-62) was 14.4 µM (inactive), the GI50 (OVCAR-8) was 25.6 µM (inactive) and the GI50 (OVCAR-5) was > 100 µM (inactive). For the same compound, the GI50 (A498) was 28.2 µM (inactive).

COc1ccc(NN=C2C(=O)CCC2=O)cc1 was tested, and the GI50 (A549) was 18.3 µM (inactive), the GI50 (SK-MEL-28) was > 100 µM (inactive) and the GI50 (MOLT-4) was > 100 µM (inactive). For the same compound, the GI50 (M14) was 57.3 µM (inactive), the GI50 (OVCAR-4) was 37.5 µM (inactive) and the GI50 (TK-10) was > 100 µM (inactive). The GI50 (CCRF-CEM) was > 100 µM (inactive), the GI50 (U-251) was > 100 µM (inactive) and the GI50 (HL-60) was > 100 µM (inactive). The GI50 (NCI-H226) was > 100 µM (inactive), the GI50 (786-0) was > 100 µM (inactive) and the GI50 (SF-295) was 98.9 µM (inactive). For the same compound, the GI50 (HOP-92) was > 100 µM (inactive), the GI50 (UACC-62) was 5.69 µM (inactive) and the GI50 (OVCAR-8) was > 100 µM (inactive). The GI50 (OVCAR-5) was > 100 µM (inactive) and the GI50 (A498) was 55 µM (inactive).

With c1ccc(-c2ccnc3c2ccc2c(-c4ccccc4)ccnc23)cc1 the GI50 (A549) was 0.875 µM (active), the GI50 (SK-MEL-28) was 4.57 µM (inactive) and the GI50 (MOLT-4) was 0.514 µM (active). For the same compound, the GI50 (M14) was 3.37 µM (inactive), the GI50 (OVCAR-4) was 2.28 µM (inactive) and the GI50 (TK-10) was 0.279 µM (active). For the same compound, the GI50 (NCI-H522) was 1.46 µM (inactive), the GI50 (CCRF-CEM) was 0.465 µM (active) and the GI50 (U-251) was 1.17 µM (inactive). For the same compound, the GI50 (HL-60) was 0.809 µM (active), the GI50 (NCI-H226) was 1.65 µM (inactive) and the GI50 (786-0) was 2.64 µM (inactive). For the same compound, the GI50 (UACC-62) was 0.418 µM (active), the GI50 (OVCAR-8) was 1.48 µM (inactive) and the GI50 (OVCAR-5) was 1.04 µM (active). The GI50 (A498) was 2.53 µM (inactive).
